Source: ChEMBL document CHEMBL6153125, “Harnessing the Magic Methyl Effect: Discovery of CLPP-2068 as a Novel HsClpP Activator for the Treatment of Diffuse Large B-Cell Lymphoma” (J Med Chem, 2025)
pEC50, pIC50: −log10 of the molar value. Values belong to the molecule of their own block, whether it stands above or below them.

Legend:
Bcr/Abl fusion protein = Bcr/Abl fusion protein (Homo sapiens, UniProt P00519); assay: Inhibition of Bcr-Abl (unknown origin)
in vivo [1] = details: ICR, mouse, po, 15 mg/kg
Description: Tmax in ICR mouse at 15 mg/kg, po measured upto 24 hrs by LC-MS/MS analysis

in vivo [2] = details: ICR, mouse, po, 15 mg/kg; remark: listed apart in the source
Description: Oral bioavailability in ICR mouse at 15 mg/kg measured upto 24 hrs by LC-MS/MS analysis

in vivo [3] = details: ICR, mouse, po, 15 mg/kg; remark: listed apart in the source
Description: AUC (0 to t) in ICR mouse at 15 mg/kg, po measured upto 24 hrs by LC-MS/MS analysis

in vivo [4] = details: ICR, mouse, iv, 5 mg/kg
in vivo [5] = details: ICR, mouse, po, 15 mg/kg; remark: listed apart in the source
Description: Cmax in ICR mouse at 15 mg/kg, po measured upto 24 hrs by LC-MS/MS analysis

[6] = MRT in ICR mouse at 15 mg/kg, po measured upto 24 hrs by LC-MS/MS analysis; details: in vivo
[7] = Metabolic stability in human liver microsomes assessed as intrinsic clearance
[8] = Clearance in ICR mouse at 5 mg/kg, iv measured upto 24 hrs by LC-MS/MS analysis; details: in vivo
[9] = Half life in ICR mouse at 5 mg/kg, iv measured upto 24 hrs by LC-MS/MS analysis; details: in vivo
[10] = Half life in ICR mouse at 15 mg/kg, po measured upto 24 hrs by LC-MS/MS analysis; details: in vivo
[11] = MRT in ICR mouse at 5 mg/kg, iv measured upto 24 hrs by LC-MS/MS analysis; details: in vivo
[12] = Metabolic stability in human liver microsomes assessed as half life
[13] = biological target: Voltage-gated inwardly rectifying potassium channel KCNH2 (Homo sapiens, UniProt Q12809)
Chain of Voltage-gated inwardly rectifying potassium channel KCNH2 (Q12809 whole entry): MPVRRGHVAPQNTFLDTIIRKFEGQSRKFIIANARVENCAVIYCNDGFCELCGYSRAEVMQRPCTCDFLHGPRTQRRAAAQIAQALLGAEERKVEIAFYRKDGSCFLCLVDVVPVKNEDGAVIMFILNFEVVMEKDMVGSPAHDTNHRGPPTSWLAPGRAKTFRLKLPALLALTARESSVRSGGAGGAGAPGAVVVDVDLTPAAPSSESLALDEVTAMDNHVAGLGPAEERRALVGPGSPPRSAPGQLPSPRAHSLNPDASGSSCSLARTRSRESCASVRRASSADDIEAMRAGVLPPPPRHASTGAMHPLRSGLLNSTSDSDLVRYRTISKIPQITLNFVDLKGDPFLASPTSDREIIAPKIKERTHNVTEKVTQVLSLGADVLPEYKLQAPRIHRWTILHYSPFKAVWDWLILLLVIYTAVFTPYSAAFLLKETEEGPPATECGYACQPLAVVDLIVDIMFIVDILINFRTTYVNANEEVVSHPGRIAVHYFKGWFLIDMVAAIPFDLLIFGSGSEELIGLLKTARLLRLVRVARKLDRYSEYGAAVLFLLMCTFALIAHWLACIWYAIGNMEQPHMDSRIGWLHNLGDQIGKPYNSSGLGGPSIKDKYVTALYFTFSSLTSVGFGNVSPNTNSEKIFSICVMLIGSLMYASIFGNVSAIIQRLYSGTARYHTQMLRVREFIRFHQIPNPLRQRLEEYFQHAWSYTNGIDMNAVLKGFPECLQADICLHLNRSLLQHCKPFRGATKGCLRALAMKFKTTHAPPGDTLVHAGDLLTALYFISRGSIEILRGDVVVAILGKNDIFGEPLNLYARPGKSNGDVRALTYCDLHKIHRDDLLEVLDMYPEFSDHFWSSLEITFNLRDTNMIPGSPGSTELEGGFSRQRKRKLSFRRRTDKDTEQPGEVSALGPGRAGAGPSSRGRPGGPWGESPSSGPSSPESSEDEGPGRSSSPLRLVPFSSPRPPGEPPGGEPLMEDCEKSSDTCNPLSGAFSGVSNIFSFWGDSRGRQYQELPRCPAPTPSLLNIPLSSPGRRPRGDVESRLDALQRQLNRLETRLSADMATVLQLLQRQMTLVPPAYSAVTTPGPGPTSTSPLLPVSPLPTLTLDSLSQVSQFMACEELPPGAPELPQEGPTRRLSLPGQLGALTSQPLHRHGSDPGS

[14] = Half life in ICR mouse at 2 mg/kg, iv measured upto 24 hrs by LC-MS/MS analysis; details: in vivo
in vivo [15] = details: ICR, mouse, po, 10 mg/kg
Description: AUC (0 to t) in ICR mouse at 10 mg/kg, po measured upto 24 hrs by LC-MS/MS analysis

[16] = biological target: ATP-dependent Clp protease proteolytic subunit, mitochondrial (Homo sapiens, UniProt Q16740); assay: Activation of human ClpP extracted from Escherichia coli using Ac-WLA-AMC as substrate assessed as fluorescence signal measured after 10 mins incubation
Chain of ATP-dependent Clp protease proteolytic subunit, mitochondrial (Q16740 whole entry): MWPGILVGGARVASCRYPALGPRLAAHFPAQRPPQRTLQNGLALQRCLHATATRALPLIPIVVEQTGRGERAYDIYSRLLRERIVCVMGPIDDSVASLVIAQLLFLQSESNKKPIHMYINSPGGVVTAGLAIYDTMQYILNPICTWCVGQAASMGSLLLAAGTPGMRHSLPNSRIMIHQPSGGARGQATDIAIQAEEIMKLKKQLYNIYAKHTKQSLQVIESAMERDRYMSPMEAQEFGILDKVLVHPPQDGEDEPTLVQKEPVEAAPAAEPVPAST

[17] = Half life in ICR mouse at 10 mg/kg, po measured upto 24 hrs by LC-MS/MS analysis; details: in vivo
SU-DHL-6 = assay: Antiproliferative activity against human SU-DHL-6 cells assessed as cell viability measured after 72 hrs incubation by CellTiter-based growth inhibition assay; details: SU-DHL-6, 72 h
[18] = MRT in ICR mouse at 10 mg/kg, po measured upto 24 hrs by LC-MS/MS analysis; details: in vivo
[19] = AUCt in ICR mouse at 2 mg/kg, iv measured upto 24 hrs by LC-MS/MS analysis; details: in vivo
[20] = Metabolic stability in rat liver microsomes assessed as intrinsic clearance
in vivo [21] = details: ICR, mouse, po, 10 mg/kg; remark: listed apart in the source
Description: Oral bioavailability in ICR mouse at 10 mg/kg measured upto 24 hrs by LC-MS/MS analysis

Toledo = assay: Antiproliferative activity against human Toledo cells assessed as cell viability measured after 72 hrs incubation by CellTiter-based growth inhibition assay
OCI-Ly3 = assay: Antiproliferative activity against human OCI-Ly3 cells assessed as cell viability measured after 72 hrs incubation by CellTiter-based growth inhibition assay; details: OCI-Ly3, 72 h
[22] = MRT in ICR mouse at 2 mg/kg, iv measured upto 24 hrs by LC-MS/MS analysis; details: in vivo
[23] = Metabolic stability in rat liver microsomes assessed as apparent intrinsic clearance
[24] = Metabolic stability in rat liver microsomes assessed as hepatic extraction
[25] = Metabolic stability in human liver microsomes assessed as hepatic clearance
SUD4 = assay: Antiproliferative activity against human SU-DHL-4 cells assessed as cell viability measured after 72 hrs incubation by CellTiter-based growth inhibition assay; details: SU-DHL-4, 72 h
[26] = Metabolic stability in human liver microsomes assessed as hepatic extraction
in vivo [27] = details: ICR, mouse, po, 10 mg/kg; remark: listed apart in the source
Description: Cmax in ICR mouse at 10 mg/kg, po measured upto 24 hrs by LC-MS/MS analysis

[28] = Metabolic stability in human liver microsomes assessed as apparent intrinsic clearance
[29] = Metabolic stability in rat liver microsomes assessed as half life
SU-DHL-2 = assay: Antiproliferative activity against human SU-DHL-2 cells assessed as cell viability measured after 72 hrs incubation by CellTiter-based growth inhibition assay; details: SU-DHL-2, 72 h
[30] = Volume of distribution at steady state in ICR mouse at 2 mg/kg measured upto 24 hrs by LC-MS/MS analysis; details: in vivo, iv
[31] = Metabolic stability in rat liver microsomes assessed as hepatic clearance
[32] = Clearance in ICR mouse at 2 mg/kg, iv measured upto 24 hrs by LC-MS/MS analysis; details: in vivo
in vivo [33] = details: ICR, mouse, po, 10 mg/kg; remark: listed apart in the source
Description: Tmax in ICR mouse at 10 mg/kg, po measured upto 24 hrs by LC-MS/MS analysis

OCI-Ly10 = assay: Antiproliferative activity against human OCI-Ly10 cells assessed as cell viability measured after 72 hrs incubation by CellTiter-based growth inhibition assay; details: OCI-Ly10, 72 h

Chain of Bcr/Abl fusion protein (P00519 whole entry, the tested form may be a part): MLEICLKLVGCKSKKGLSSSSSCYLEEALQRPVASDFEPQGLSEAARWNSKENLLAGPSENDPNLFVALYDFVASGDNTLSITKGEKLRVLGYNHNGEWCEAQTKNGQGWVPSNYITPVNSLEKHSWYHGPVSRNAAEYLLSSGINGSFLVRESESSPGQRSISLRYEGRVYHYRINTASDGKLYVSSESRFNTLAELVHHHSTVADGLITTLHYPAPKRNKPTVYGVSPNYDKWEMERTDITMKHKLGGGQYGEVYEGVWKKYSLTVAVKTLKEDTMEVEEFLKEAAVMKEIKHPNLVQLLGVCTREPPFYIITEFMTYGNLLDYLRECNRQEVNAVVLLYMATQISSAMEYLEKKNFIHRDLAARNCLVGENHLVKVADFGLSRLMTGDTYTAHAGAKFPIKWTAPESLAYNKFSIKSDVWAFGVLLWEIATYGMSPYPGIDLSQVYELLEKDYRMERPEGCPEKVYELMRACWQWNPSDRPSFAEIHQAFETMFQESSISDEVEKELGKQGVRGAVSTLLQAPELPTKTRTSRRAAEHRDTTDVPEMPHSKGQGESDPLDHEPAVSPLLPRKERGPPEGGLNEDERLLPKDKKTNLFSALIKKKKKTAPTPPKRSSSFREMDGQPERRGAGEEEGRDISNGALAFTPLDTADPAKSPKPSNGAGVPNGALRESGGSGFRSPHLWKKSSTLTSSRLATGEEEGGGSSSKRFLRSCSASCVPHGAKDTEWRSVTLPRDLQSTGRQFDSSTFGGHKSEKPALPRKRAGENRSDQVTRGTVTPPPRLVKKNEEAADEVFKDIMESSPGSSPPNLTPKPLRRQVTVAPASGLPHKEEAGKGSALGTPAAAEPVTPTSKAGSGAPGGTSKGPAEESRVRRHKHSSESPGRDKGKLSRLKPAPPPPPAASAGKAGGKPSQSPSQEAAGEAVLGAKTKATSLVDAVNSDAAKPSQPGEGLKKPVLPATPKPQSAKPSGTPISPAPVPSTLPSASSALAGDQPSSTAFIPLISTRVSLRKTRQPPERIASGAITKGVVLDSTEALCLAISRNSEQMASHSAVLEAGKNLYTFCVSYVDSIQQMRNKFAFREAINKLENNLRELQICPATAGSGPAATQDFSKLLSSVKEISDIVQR
Chain of Bcr/Abl fusion protein (P11274 whole entry, further chain, the tested form may be a part): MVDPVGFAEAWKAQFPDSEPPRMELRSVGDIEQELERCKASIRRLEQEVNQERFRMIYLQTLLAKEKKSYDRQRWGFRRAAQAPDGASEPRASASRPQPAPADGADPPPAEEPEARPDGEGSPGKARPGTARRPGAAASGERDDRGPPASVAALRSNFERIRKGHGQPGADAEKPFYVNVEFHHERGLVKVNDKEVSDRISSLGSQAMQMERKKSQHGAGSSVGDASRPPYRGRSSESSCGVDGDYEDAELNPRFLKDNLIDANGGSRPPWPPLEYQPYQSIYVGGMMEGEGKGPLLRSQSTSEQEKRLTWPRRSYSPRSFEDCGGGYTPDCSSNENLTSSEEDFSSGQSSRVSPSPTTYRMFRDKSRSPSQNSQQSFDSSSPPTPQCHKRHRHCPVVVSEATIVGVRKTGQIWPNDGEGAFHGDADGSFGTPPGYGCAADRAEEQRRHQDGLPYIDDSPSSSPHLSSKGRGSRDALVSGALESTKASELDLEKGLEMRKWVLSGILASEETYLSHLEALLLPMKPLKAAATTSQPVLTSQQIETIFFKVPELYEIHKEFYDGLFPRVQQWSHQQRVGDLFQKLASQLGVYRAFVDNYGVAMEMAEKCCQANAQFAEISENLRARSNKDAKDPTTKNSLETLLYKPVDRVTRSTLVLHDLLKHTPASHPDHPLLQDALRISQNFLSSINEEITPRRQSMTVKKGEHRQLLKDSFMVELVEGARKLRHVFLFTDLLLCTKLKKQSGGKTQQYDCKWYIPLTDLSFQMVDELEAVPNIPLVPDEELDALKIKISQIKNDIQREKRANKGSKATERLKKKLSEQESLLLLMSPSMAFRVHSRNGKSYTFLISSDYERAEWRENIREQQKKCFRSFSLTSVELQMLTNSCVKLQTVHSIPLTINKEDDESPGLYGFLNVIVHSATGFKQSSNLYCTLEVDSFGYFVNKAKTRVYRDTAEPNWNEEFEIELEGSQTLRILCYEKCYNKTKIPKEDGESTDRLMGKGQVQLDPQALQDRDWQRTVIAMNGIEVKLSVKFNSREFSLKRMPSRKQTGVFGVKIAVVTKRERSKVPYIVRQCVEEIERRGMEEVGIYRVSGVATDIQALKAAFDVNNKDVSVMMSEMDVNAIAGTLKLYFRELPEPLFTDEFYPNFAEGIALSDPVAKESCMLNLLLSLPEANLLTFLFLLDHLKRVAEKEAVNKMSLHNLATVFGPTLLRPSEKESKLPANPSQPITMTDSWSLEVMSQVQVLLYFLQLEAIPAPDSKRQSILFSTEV

SMILES: O=C(Nc1cccc(Nc2nccc(-c3cccnc3)n2)c1)c1ccccc1
pIC50 (Bcr/Abl fusion protein): 6.70

SMILES: Cc1ccccc1CN1C(=O)C2=C(CCN(Cc3ccccc3)C2)N2CCN=C12.Cl.Cl.O
Tmax at 24 h (in vivo [1]): 0.42 h
bioavailability at 24 h (in vivo [2]): 15.2%
AUC(0-t) at 24 h (in vivo [3]): 894 ng·h/mL
AUC(0-t) at 24 h (in vivo [4]): 1960 ng·h/mL
Cmax at 24 h (in vivo [5]): 566 ng/mL
MRT at 24 h [6]: 1.46 h
CLint scaled [7]: 187 mL/min/kg
clearance at 24 h [8]: 42.7 mL/min/kg
half-life at 24 h [9]: 0.91 h
half-life at 24 h [10]: 1.05 h
MRT at 24 h [11]: 0.86 h
half-life [12]: 9.3 h

SMILES: O=c1nc2n(c3c1CN(Cc1ccccc1)CC3)CCN2Cc1ccc(F)c(Br)c1
pIC50 [13]: 5.82

SMILES: O=C1C2=C(CCN(Cc3ccccc3)C2)N2CCN=C2N1Cc1ccc(C(F)(F)F)cc1
half-life at 24 h [14]: 2.01 h
AUC(0-t) at 24 h (in vivo [15]): 3350 ng·h/mL
pEC50 [16]: 6.81
pIC50 [13]: < 4.40
half-life at 24 h [17]: 3.75 h
pIC50 (SU-DHL-6): 7.04
MRT at 24 h [18]: 4.65 h
AUC(0-t) at 24 h [19]: 1530 ng·h/mL
CLint scaled [20]: 487 mL/min/kg
bioavailability at 24 h (in vivo [21]): 43.7%
pIC50 (Toledo): < 6.60
pIC50 (OCI-Ly3): 6.83
MRT at 24 h [22]: 1.72 h
CLint scaled [23]: 876 mL/min/kg
hepatic extraction ratio [24]: 0.941
CLhep predicted [25]: 19.7 mL/min/kg
pIC50 (SUD4): 6.60
hepatic extraction ratio [26]: 0.95
Cmax at 24 h (in vivo [27]): 873 ng/mL
CLint scaled [28]: 396 mL/min/kg
CLint scaled [7]: 338 mL/min/kg
half-life [29]: 7.1 h
pIC50 (SU-DHL-2): 6.65
Vd at 24 h [30]: 2.25 L/kg
CLhep predicted [31]: 51.9 mL/min/kg
clearance at 24 h [32]: 21.8 mL/min/kg
Tmax at 24 h (in vivo [33]): 0.42 h
half-life [12]: 10.2 h

SMILES: O=c1nc(NCc2ccc(C(F)(F)F)cc2)[nH]c2c1CN(Cc1ccccc1)CC2
pEC50 [16]: 5.62

SMILES: C[C@@H]1Cc2nc(NCc3ccc(C(F)(F)F)cc3)[nH]c(=O)c2CN1Cc1ccccc1O
pEC50 [16]: 6.07
pIC50 (OCI-Ly10): 5.89

SMILES: C[C@@H]1Cc2nc(NCc3ccc(C(F)(F)F)cc3)[nH]c(=O)c2CN1CC1CCCCC1
pEC50 [16]: 6.52
pIC50 (OCI-Ly10): 6.10

SMILES: C[C@@H]1Cc2nc(NCc3ccc(Br)c(F)c3)[nH]c(=O)c2CN1Cc1cccc(C#N)c1
pEC50 [16]: 6.58
pIC50 (OCI-Ly10): 7.32

SMILES: C[C@@H]1Cc2nc(NCc3ccc(C(F)(F)F)cc3)[nH]c(=O)c2CN1Cc1cccc2ccccc12
pEC50 [16]: 6.12
pIC50 (OCI-Ly10): 5.09

SMILES: C[C@@H]1Cc2nc(N3CCC(c4ccccc4)C3)[nH]c(=O)c2CN1Cc1cccc(C#N)c1 (stereo partly specified)
pEC50 [16]: 6.15
pIC50 (OCI-Ly10): 5.24

More lines, now with the values ahead:

pEC50 [16]: 7.17
pIC50 (OCI-Ly10): 6.98
SMILES: C[C@@H]1Cc2nc(NCc3cccc4ccccc34)[nH]c(=O)c2CN1Cc1cccc(C#N)c1

pEC50 [16]: 7.25
pIC50 (OCI-Ly10): 7.38
SMILES: C[C@@H]1Cc2nc(NCc3ccc(C(F)(F)F)cc3)[nH]c(=O)c2CN1Cc1cccc(C#N)c1

pEC50 [16]: 7.23
pIC50 (OCI-Ly10): 7.87
SMILES: C[C@@H]1Cc2nc(NCc3ccc(Cl)cc3)[nH]c(=O)c2CN1Cc1cccc(C#N)c1

pEC50 [16]: 7.03
pIC50 (OCI-Ly10): 7.06
SMILES: Cc1cc(Br)ccc1CNc1nc2c(c(=O)[nH]1)CN(Cc1cccc(C#N)c1)[C@H](C)C2

pEC50 [16]: 7.19
SMILES: C[C@@H]1Cc2nc(NCc3ccc(C(F)(F)F)cc3)[nH]c(=O)c2CN1Cc1ccccc1

pEC50 [16]: 7.36
pIC50 (OCI-Ly10): 7.35
SMILES: Cc1ccccc1CNc1nc2c(c(=O)[nH]1)CN(Cc1cccc(C#N)c1)[C@H](C)C2

pEC50 [16]: 7.57
pIC50 (OCI-Ly10): 6.93
SMILES: Cc1ccc(CNc2nc3c(c(=O)[nH]2)CN(Cc2cccc(C#N)c2)[C@H](C)C3)cc1
